Patent US6967196B1, “Sulfonamide compounds and uses thereof” (Bristol-Myers Squibb Company, priority 1999, dated 2005)
Where a name gives a salt, the structure may show the parent alone. Read-outs that look alike come from different tables or passages of the source. Blank lines part the entries; values can stand above or below the molecule they belong to.

System: amyloid β production in transfected H4 (human neuroglioma) cells stably expressing APP constructs
Assay: In vitro cell-based assay of inhibitors of amyloid β production (ELISA)
Conditions: amyloid β in medium by ELISA
Outline: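 Aβ secreted into the medium was determined by a two-antibody ELISA specific for the Aβ C-terminus, calibrated with known Aβ amounts. Before that, compounds (10-100 μM initially) were left on the cells for roughly 16 hours.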

[1] = transfected H4 cells stably expressing APP, approximately 16 hours incubation, read-out: ACTIVITY (IC50, inhibition of amyloid β production)
[2] = transfected H4 cells stably expressing APP constructs, approximately 16 hours incubation, read-out: ACTIVITY (IC50, inhibition of amyloid β production)
[3] = transfected H4 cells stably expressing APP, approx. 16 h incubation, read-out: ACTIVITY (IC50, inhibition of amyloid β production)
[4] = Homo sapiens, 16 h, transfected H4 cells stably expressing APP, approximately 16 hours incubation, read-out: ACTIVITY (IC50, inhibition of amyloid β production)
[5] = transfected H4 cells stably expressing APP, approximately 16 hours incubation, Table B, read-out: ACTIVITY (IC50, inhibition of amyloid β production)
[6] = Homo sapiens, 16 h, transfected H4 cells stably expressing APP constructs, approximately 16 hours incubation, read-out: ACTIVITY (IC50, inhibition of amyloid β production)
[7] = Table B, transfected H4 cells stably expressing APP, approximately 16 hours incubation, read-out: ACTIVITY (inhibitory concentration IC50, inhibition of amyloid β production)

IC50 [1]: > 500 nM
Molecule: C[C@H](c1ccc(F)cc1CCCC(=O)O)N(c1cc(F)ccc1F)S(=O)(=O)c1ccc(Cl)cc1 [Example 1072, 4-[2-((1R)-1-{[(4-chlorophenyl)sulfonyl]-2,5-difluoroanilino}ethyl)-5-fluorophenyl]butanoic acid]

Molecule: C[C@H](CCCN1CCCC(S(C)(=O)=O)C1)N(c1cc(Cl)ccc1Cl)S(=O)(=O)c1ccc(Cl)cc1 (stereo partly drawn) [Example 1109, 4-chloro-N-(2,5-dichlorophenyl)-N-[4-[(3-methylsulfonyl)-1-piperidinyl]-1(R)-methylbutyl]benzenesulfonamide]
IC50 [2]: ≤ 25 nM

Molecule: C[C@H](c1ccc(F)cc1COC(=O)NCc1ccco1)N(c1cc(F)ccc1F)S(=O)(=O)c1ccc(Cl)cc1 [Example 691, 2-((1R)-1-{[(4-chlorophenyl)sulfonyl]-2,5-difluoroanilino}ethyl)-5-fluorobenzyl 2-furylmethylcarbamate]
IC50 [3]: 100 to 500 nM

IC50 [4]: > 500 nM
Molecule: C[C@H](c1ccccc1OCCCn1ccnc1)N(c1cccc(F)c1)S(=O)(=O)c1ccc(Cl)cc1 [Example 895, 4-chloro-N-(3-fluorophenyl)-N-((1R)-1-{2-[3-(1H-imidazol-1-yl)propoxy]phenyl}ethyl)benzenesulfonamide hydrochloride]

IC50 [5]: 50 to 100 nM
Molecule: COC(=O)CCS(=O)(=O)Cc1cc(F)ccc1[C@@H](C)N(c1cc(F)ccc1F)S(=O)(=O)c1ccc(Cl)cc1 [Example 466, Methyl 3-{[2-((1R)-1-{[(4-chlorophenyl)sulfonyl]-2,5-difluoroanilino}ethyl)-5-fluorobenzyl]sulfonyl}propanoate]

IC50 [3]: 100 to 500 nM
Molecule: N-{2-[2-(1-{[(4-chlorophenyl)sulfonyl]-2,5-difluoroanilino}ethyl)phenoxy]ethyl}-N-methylpentanamide [Example 664]

Molecule: O=S(=O)(c1ccc(Cl)cc1)N(Cc1ccccc1OCCCN1CCC(CO)CC1)c1ccccc1 [Example 311, 4-Chloro-N-(2-{3-[4-(hydroxymethyl)-1-piperidinyl]propoxy}benzyl)-N-phenylbenzenesulfonamide Hydrochloride]
IC50 [5]: 50 to 100 nM

IC50 [6]: ≤ 25 nM
Molecule: C[C@H](CCCS(=O)(=O)N1CCCC1)N(c1cc(Cl)ccc1Cl)S(=O)(=O)c1ccc(Cl)cc1 [Example 1204, 4-chloro-N-[2,5-dichlorophenyl]-N-[4-[(1-pyrrolidinyl)sulfonyl]-1(R)-methylbutyl]benzenesulfonamide]

IC50 [6]: > 500 nM
Molecule: C[C@H](CCCN(c1cc(Cl)ccc1Cl)S(=O)(=O)c1ccc(Cl)cc1)N(c1cc(Cl)ccc1Cl)S(=O)(=O)c1ccc(Cl)cc1 [Example 1158, 4-chloro-N-(2,5-dichlorophenyl)-N-[4-[N-(2,5-dichlorophenyl)-N-[(4-chlorophenyl)sulfonyl]amino]-1(R)-methylbutyl]benzenesulfonamide]

IC50 [6]: > 10000 nM
Molecule: O=S(=O)(c1ccc(Cl)cc1)N(Cc1ccccc1OCc1cccnc1)c1ccccc1 [Example 1091, 4-chloro-N-phenyl-N-[2-(3-pyridinylmethoxy)benzyl]benzenesulfonamide hydrochloride]

IC50 [1]: 100 to 500 nM
Molecule: 2,2,2-trichloro-N-{3-[2-({[(4-chlorophenyl)sulfonyl]-2,5-difluoroanilino}methyl)phenoxy]propyl}-N-methylacetamide [Example 853]

IC50 [4]: 100 to 500 nM
Molecule: O=C(/C=C\c1ccccc1)N1CCCCC1CCOc1ccccc1CN(c1cc(F)ccc1F)S(=O)(=O)c1ccc(Cl)cc1 (stereo not drawn) [Example 832, 4-chloro-N-(2,5-difluorophenyl)-N-[2-(2-{1-[(2Z)-3-phenyl-2-propenoyl]-2-piperidinyl}ethoxy)benzyl]benzenesulfonamide]

IC50 [3]: 100 to 500 nM
Molecule: N-{3-[2-(1-{[(4-chlorophenyl)sulfonyl]-2,5-difluoroanilino}ethyl)phenoxy]propyl}-N,4-dimethylbenzamide [Example 741]

IC50 [7]: ≤ 25 nM
Molecule: C[C@H](CCCS(=O)(=O)Cl)N(c1cc(Cl)ccc1F)S(=O)(=O)c1ccc(Cl)cc1 [Example 43, (4R)-4-[N-[5-chloro-2-fluorophenyl][(4-chlorophenyl)sulfonyl]amino]pentylsulfonyl Chloride]

IC50 [3]: 100 to 500 nM
Molecule: N-{3-[2-({[(4-chlorophenyl)sulfonyl]-2,5-difluoroanilino}methyl)phenoxy]propyl}-4-fluoro-N-methylbenzamide [Example 747]

IC50 [1]: > 500 nM
Molecule: [2-((1R)-1-{[(4-chlorophenyl)sulfonyl]-2,5-difluoroanilino}ethyl)-5-fluorophenyl]methanesulfonic acid [Example 1009]

IC50 [6]: ≤ 25 nM
Molecule: C[C@H](CCCS(N)(=O)=O)N(c1cc(Cl)ccc1Cl)S(=O)(=O)c1ccc(Cl)cc1 [Example 1210, N-[4-(aminosulfonyl)-1(R)-methylbutyl]-4-chloro-N-(2,5-dichlorophenyl)benzenesulfonamide]

IC50 [1]: 100 to 500 nM
Molecule: N-{3-[2-({[(4-chlorophenyl)sulfonyl]-2,5-difluoroanilino}methyl)phenoxy]propyl}-2,4,5-trifluoro-N-methylbenzamide [Example 813]

IC50 [6]: ≤ 25 nM
Molecule: C[C@H](CCCS(=O)(=O)N1CCC1)N(c1cc(Cl)ccc1Cl)S(=O)(=O)c1ccc(Cl)cc1 [Example 1198, 4-chloro-N-[2,5-dichlorophenyl]-N-[4-[(1-azetidinyl)sulfonyl]-1(R)-methylbutyl]benzenesulfonamide]

Molecule: COC(=O)[C@H](CS(=O)(=O)Cc1cc(F)ccc1[C@@H](C)N(c1cc(F)ccc1F)S(=O)(=O)c1ccc(Cl)cc1)NC(=O)OC(C)(C)C [Example 469, Methyl (2R)-2-[(tert-butoxycarbonyl)amino]-3-{[2-((1R)-1-{[(4-chlorophenyl)sulfonyl]-2,5-difluoroanilino}ethyl)-5-fluorobenzyl]sulfonyl}propanoate]
IC50 [5]: 50 to 100 nM

IC50 (transfected H4 cells stably expressing APP, approximately 16 hours incubation, hydrochloride, read-out: ACTIVITY (IC50, inhibition of amyloid β production)): 100 to 500 nM
Molecule: CCC[C@@H](C)N(Cc1ccccc1OCCCN1CCCCC1)S(=O)(=O)c1ccc(Cl)cc1 [Example 867, 4-chloro-N-[(1R)-1-methylbutyl]-N-{2-[3-(1-piperidinyl)propoxy]benzyl}benzenesulfonamide hydrochloride]

Molecule: C[C@H](CCCNS(C)(=O)=O)N(c1cc(Cl)ccc1F)S(=O)(=O)c1ccc(Cl)cc1 [Example 1100]
IC50 [2]: ≤ 25 nM

IC50 [6]: 50 to 100 nM
Molecule: CC(C)CNS(=O)(=O)CCC[C@@H](C)N(c1cc(Cl)ccc1Cl)S(=O)(=O)c1ccc(Cl)cc1 [Example 1216, 4-chloro-N-[2,5-dichlorophenyl]-N-[4-[(2-methylpropylamino)sulfonyl]-1(R)-methylbutyl]benzenesulfonamide]

Molecule: O=C(c1ccccc1F)N1CCCCC1CCOc1ccccc1CN(c1cc(F)ccc1F)S(=O)(=O)c1ccc(Cl)cc1 (stereo not drawn) [Example 787]
IC50 [3]: 100 to 500 nM

Molecule: CC(=O)Nc1nc(C)c(S(=O)(=O)N(Cc2ccccc2OCCCN2CCCCC2)c2cc(Cl)ccc2Cl)s1 [Example 259, N-{5-[(2,5-dichloro{2-[3-(1-piperidinyl)propoxy]benzyl}anilino)sulfonyl]-4-methyl-1,3-thiazol-2-yl}acetamide Hydrochloride]
IC50 [7]: 25 to 50 nM

IC50 [3]: 100 to 500 nM
Molecule: 2-[2-((1R)-1-{[(4-chlorophenyl)sulfonyl]-2,5-difluoroanilino}ethyl)phenyl]ethyl sec-butylcarbamate [Example 650]

Molecule: CC(C)Oc1c(NCCC[C@@H](C)N(c2cc(F)ccc2F)S(=O)(=O)c2ccc(Cl)cc2)c(=O)c1=O [Example 1120, 4-chloro-N-(2,5-difluorophenyl)-N-[4-(2-isopropoxy-3,4-dioxo-1-cyclobutenyl)amine-1(R)-methylbutyl]benzenesulfonamide]
IC50 [2]: 25 to 50 nM

IC50 [4]: > 500 nM
Molecule: COc1ccc(C(=O)N2CCCCC2CCOc2ccccc2CN(c2cc(F)ccc2F)S(=O)(=O)c2ccc(Cl)cc2)cc1OC (stereo not drawn) [Example 890, 4-chloro-N-(2,5-difluorophenyl)-N-(2-{2-[1-(3,4-dimethoxybenzoyl)-2-piperidinyl]ethoxy}benzyl)benzenesulfonamide]

Molecule: CC[S+]([O-])CCCC[C@@H](C)N(c1cc(Cl)ccc1Cl)S(=O)(=O)c1ccc(Cl)cc1 (stereo partly drawn) [Example 1173, 4-chloro-N-[2,5-dichlorophenyl]-N-[1(R)-methyl-(5-ethylsulfinyl)pentyl]benzenesulfonamide]
IC50 [2]: ≤ 25 nM

IC50 [1]: > 500 nM
Molecule: 4-chloro-N-{3-[2-(1-{[(4-chlorophenyl)sulfonyl]-2,5-difluoroanilino}ethyl)phenoxy]propyl}-2-nitrobenzamide [Example 947]

Molecule: COC(=O)[C@H](CC(C)C)NC(=O)CCC[C@@H](C)N(c1cc(Cl)ccc1F)S(=O)(=O)c1ccc(Cl)cc1 [Example 1265, (R)-4-Chloro-N-(5-chloro-2-fluorophenyl)-N-[6-[N-(S)-[1-(methoxycarbonyl)-3-methylbutyl]amino]-1-methyl-5-oxopentyl]benzenesulfonamide]
IC50 [2]: 50 to 100 nM

IC50 [7]: ≤ 25 nM
Molecule: C[C@H](O)CCCC(=O)OC(C)(C)C [Example 34, 1,1-Dimethylethyl (5S)-5-hydroxyhexanoate]

IC50 [4]: 100 to 500 nM
Molecule: C[C@H](c1ccccc1Br)N(c1cc(F)ccc1F)S(=O)(=O)c1ccc(Cl)cc1 [Example 855, N-[(1R)-1-(2-bromophenyl)ethyl]-4-chloro-N-(2,5-difluorophenyl)benzenesulfonamide]
